This note sets out measurements from BindingDB's records for doi:10.7270/Q2QN6575 (Nmmlsc, 2011).

Structures are written as SMILES.

For the first test, the target named is T1, Citrate synthase, peroxisomal [1-24] (Saccharomyces cerevisiae, UniProt P08679).
T1 construct: 1-24
T1 sequence (P08679 1-24): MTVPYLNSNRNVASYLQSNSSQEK
The test can be described thus: yeast TOR pathway CIT2-GFP reporter analogs – flow cytometry, cherry pick 3, dose response, SAR follow-up (AID 488825).
Settings: not given
The EC50 is the concentration that produces a half-maximal response. A high value points to a need for much substance. On to `Cc1nc(Nc2ccc(Br)cc2Br)c([N+](=O)[O-])c(=O)[nH]1` [6-[[2,4-bis(bromanyl)phenyl]amino]-2-methyl-5-nitro-1H-pyrimidin-4-one], for which the EC50 turned out to be 74.1 µM.

The same test, now with this note: inactive by the depositor's call.
Consider `Cc1ccc(C(=O)Nc2nc(-c3ccccn3)cs2)o1` [5-methyl-N-[4-(2-pyridinyl)-2-thiazolyl]-2-furancarboxamide], for which a half-maximal response (EC50) required 3680 µM.
Take `COc1ccccc1-c1cc(C(F)(F)F)nc(S(=O)(=O)CCCC(=O)O)n1` [4-[4-(2-methoxyphenyl)-6-(trifluoromethyl)pyrimidin-2-yl]sulfonylbutanoic acid]: the concentration giving a half-maximal response (EC50) came to 58 µM.
The molecule `Oc1c(Cl)cc(Cl)c2cccnc12` [AS-229] displayed an EC50 of 19800 µM.
The molecule `CCC(C)Nc1nc(N)c([N+](=O)[O-])c(Nc2ccccc2OC)n1` (stereo unspecified) [SMR000434817] showed an EC50 of 128 µM.
Same read-out and setting: the same measure for `O=C(O)c1ccc2cccc(O)c2n1` [8-oxidanylquinoline-2-carboxylic acid]: 300 µM.
